Reference: US8912180B2, “Heterocyclic compound” (Astellas Pharma Inc., priority 2010, dated 2014)
Structures can show the parent of a compound that is named as a salt.

Columns and labels:
[1] = molecular target: T1, human PI3Kδ enzyme (Homo sapiens, UniProt O00329); experiment: PI3Kδ enzyme inhibitory activity (PI3-Kinase HTRF Assay kit); assay type: biochemical; settings: human PI3Kδ 10 ng/well, ATP 30 μM, PIP2 10 μM, room temperature 30 minutes
T1 construct: purchased Millipore Corporation 14-604
Protocol: 1. PI3Kδ Enzyme Inhibitory Activity
For the experiment, a PI3-Kinase HTRF Assay kit (Millipore Corporation, Catalogue No. 33-016) and a human PI3Kδ enzyme (Millipore Corporation, Catalogue No. 14-604) were used. The measurement method was in accordance with the appended instructions. The overview thereof is as follows.
PI3Kδ (10 ng/well), phosphatidylinositol-4,5-bisphosphate (10 μM), ATP (30 μM), and the test compound were mixed in a 384-well plate (total 20 μL), and incubated at room temperature for 30 minutes. EDTA and biotinylated phosphatidylinositol-3,4,5-triphosphate were added thereto to stop the reaction. Thereafter, a Europium labeled anti-GST antibody, a GST bond GRP1 PH domain, and streptavidin-APC were added thereto, followed by incubation overnight. An HTRF ratio was measured using an HTRF plate reader.

[2] = molecular target: T2, Human PI3Kα (Homo sapiens, UniProt P42336); experiment: PI3Kα enzyme inhibitory activity (Kinase-Glo Plus luminescence); assay type: biochemical; settings: human PI3Kα 12 ng/well, phosphatidylinositol 0.2 μg/well, 37° C. 3 hours
T2 construct: purchased Millipore Corporation 14-602
Protocol: 2. PI3Kα Enzyme Inhibitory Activity
Human PI3Kα (12 ng/well, Millipore Corporation, Catalogue No. 14-602), phosphatidylinositol (0.2 μg/well), and the test compound were mixed in a 384-well plate in a reaction buffer (50 mM Hepes, 10 mM NaCl, 10 mM MgCl2, 2 mM EGTA, 2 mM DTT, pH 7.3) (total 10 μl), and incubated at 37° C. for 3 hours. After the reaction, 10 μL of a Kinase-Glo Plus reagent (Promega, Catalogue No. V3772) was added thereto, and a luminescence was measured with a luminometer.

[3] = tested on: IL-2 production; experiment: Rat in vivo IL-2 production inhibition test (Concanavalin A induced); settings: 10 mg/kg oral, 2 hours before Concanavalin A 15 mg/kg iv; blood IL-2 at 3 hours, vs vehicle control; male LEW rats
Protocol: 3. Rat In Vivo IL-2 Production Inhibition Test
For the experiment, male LEW/CrlCrlj rats (Charles River Laboratories, Japan, Inc.) (6-week old, body weight 130 to 180 g) were used. The test compound was suspended in a 0.5% methyl cellulose solution and orally administered at 5 mL/kg. IL-2 production was induced by tail vein injection of Concanavalin A (Funakoshi Corporation, Catalogue No. L-1000) at a dose of 15 mg/kg.
The test was carried out according to the protocol shown below. At 2 hours or 16 hours before administration of Concanavalin A, the test compound was orally administered to rats. At 3 hours after administration of Concanavalin A, blood was collected. The IL-2 concentration in blood was quantified using an ELISA kit (R&D Systems, Inc., Catalogue No. DY502E). An inhibition rate was calculated from the amount of IL-2 produced in a group administered with the test compound with respect to the amount of the IL-2 produced in a control group administered with a vehicle.

[4] = tested on: Spleen cells prepared from male LEW/CrlCrlj rats (B cell proliferation); experiment: Rat B cell proliferation inhibition test (anti-rat IgM, [3H]thymidine); assay type: cell-based; settings: anti-rat IgM 3 μg/well, 48 hours culture
Protocol: 4. Rat B Cell Proliferation Inhibition Test
Spleen cells (1.0×10^5 cells/well) prepared from male LEW/CrlCrlj rats (Charles River Laboratories, Japan, Inc.), mouse F(ab′)2 fragment anti-rat IgM (3 μg/well, SouthernBiotech Associates, Inc., Catalogue No. 3082-14) and the test compound dissolved in DMSO (final DMSO concentration 0.1%) were mixed in a 96-well plate using a 10% FCS-containing RPMI-1640 culture medium (total 200 μL). They were cultured in a CO2 incubator for 48 hours and [^3H]thymidine (925 GBq/mmol, Moravek Biochemicals, Inc., Catalogue No. MT6038) was added thereto at 0.037 MBq/well at 4 hours before completion of culture. Cells were harvested in a GF/C glass filter using a cell harvester, and a radioactivity on the filter was measured using a liquid scintillation counter.

T1 sequence (O00329 whole entry): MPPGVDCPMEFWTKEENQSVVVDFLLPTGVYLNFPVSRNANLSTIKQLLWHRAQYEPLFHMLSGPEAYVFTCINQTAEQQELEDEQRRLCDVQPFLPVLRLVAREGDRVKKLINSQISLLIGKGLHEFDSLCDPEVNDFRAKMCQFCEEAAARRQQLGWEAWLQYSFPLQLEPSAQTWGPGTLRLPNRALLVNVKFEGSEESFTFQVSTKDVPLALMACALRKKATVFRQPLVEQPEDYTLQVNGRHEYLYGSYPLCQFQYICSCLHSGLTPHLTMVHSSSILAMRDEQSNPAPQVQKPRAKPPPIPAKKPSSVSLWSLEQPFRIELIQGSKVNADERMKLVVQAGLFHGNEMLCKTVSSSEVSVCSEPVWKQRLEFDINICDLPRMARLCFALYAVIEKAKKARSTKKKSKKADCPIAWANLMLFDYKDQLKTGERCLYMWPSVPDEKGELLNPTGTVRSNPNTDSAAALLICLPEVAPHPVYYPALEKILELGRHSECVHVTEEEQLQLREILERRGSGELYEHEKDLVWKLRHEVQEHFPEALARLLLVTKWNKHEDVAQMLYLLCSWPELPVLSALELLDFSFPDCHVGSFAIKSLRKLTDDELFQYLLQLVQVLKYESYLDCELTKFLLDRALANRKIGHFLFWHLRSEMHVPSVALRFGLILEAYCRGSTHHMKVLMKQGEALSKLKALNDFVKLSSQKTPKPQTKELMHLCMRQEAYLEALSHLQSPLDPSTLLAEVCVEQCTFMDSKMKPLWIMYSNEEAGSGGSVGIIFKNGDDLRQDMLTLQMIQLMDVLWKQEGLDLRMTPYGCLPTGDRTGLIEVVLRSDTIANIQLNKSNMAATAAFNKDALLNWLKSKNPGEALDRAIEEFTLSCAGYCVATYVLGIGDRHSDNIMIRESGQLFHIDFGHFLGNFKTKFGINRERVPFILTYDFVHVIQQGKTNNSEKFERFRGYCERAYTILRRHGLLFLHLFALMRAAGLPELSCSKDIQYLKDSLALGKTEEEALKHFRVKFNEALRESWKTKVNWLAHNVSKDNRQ
T1 sequence (P27986 whole entry partner): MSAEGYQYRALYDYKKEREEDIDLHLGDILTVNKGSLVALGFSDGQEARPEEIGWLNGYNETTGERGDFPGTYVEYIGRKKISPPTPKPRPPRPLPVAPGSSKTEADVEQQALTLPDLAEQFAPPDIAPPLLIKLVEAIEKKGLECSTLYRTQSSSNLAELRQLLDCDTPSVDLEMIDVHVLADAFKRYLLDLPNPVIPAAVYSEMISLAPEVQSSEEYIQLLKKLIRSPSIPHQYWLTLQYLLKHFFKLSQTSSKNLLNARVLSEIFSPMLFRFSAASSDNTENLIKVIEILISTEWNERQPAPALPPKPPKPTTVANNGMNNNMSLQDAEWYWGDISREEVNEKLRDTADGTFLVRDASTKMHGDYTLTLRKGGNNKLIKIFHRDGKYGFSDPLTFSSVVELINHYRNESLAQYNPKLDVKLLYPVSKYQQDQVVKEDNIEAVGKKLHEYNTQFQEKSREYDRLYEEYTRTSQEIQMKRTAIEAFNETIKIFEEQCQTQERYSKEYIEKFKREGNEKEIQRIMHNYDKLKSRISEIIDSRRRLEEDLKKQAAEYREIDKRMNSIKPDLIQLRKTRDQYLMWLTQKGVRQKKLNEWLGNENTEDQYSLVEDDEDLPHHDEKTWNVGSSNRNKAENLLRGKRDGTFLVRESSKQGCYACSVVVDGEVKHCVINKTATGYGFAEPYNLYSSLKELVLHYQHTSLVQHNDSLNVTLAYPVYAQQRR
T2 sequence (P42336 whole entry): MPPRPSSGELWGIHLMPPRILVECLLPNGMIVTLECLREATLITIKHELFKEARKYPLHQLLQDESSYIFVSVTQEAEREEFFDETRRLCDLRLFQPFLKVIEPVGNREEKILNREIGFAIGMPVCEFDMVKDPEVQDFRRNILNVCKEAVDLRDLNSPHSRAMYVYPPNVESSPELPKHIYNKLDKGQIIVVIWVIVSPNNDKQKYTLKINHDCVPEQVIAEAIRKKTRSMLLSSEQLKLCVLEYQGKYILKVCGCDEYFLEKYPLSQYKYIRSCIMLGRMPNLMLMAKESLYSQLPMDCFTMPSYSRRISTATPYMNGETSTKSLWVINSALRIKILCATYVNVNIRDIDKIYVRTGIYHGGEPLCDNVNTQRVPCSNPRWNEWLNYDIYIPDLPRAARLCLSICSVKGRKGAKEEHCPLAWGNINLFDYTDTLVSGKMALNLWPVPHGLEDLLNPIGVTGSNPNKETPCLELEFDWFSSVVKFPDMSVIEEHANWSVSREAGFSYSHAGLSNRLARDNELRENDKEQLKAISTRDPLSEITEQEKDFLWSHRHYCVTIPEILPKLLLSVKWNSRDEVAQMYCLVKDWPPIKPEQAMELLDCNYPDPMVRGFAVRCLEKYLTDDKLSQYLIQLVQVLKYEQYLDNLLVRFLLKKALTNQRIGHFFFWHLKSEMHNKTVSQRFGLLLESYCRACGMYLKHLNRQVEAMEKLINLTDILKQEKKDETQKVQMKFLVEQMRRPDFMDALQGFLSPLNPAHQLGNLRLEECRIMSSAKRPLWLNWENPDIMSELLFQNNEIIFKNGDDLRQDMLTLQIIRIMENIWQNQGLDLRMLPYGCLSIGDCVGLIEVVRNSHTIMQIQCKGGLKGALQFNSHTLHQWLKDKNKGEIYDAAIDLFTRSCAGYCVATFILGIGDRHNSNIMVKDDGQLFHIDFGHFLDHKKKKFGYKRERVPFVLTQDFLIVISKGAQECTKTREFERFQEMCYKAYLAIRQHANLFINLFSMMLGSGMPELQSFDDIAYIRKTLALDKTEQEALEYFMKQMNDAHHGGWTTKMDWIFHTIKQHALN
T2 sequence (P27986 whole entry partner): as the sequence (P27986 whole entry partner) above

`CN1CCC(CNc2nc(N3CCOCC3)nc(-n3c(C(F)F)nc4ccccc43)n2)CC1` [Example A4] was tested, and the IC50 [1] was 31 nM, the IC50 [2] was 730 nM and the “inhibitory activity (IL-2 production inhibition rate)” value (shortened to “inhibitory activity”) [3] was 58%.
In the case of `FC(F)c1nc2ccccc2n1-c1cc(N2CCOCC2)nc(NCC2CCN(C3CCOCC3)CC2)n1` [Example 10], the IC50 [1] is reported as 5.8 nM, the IC50 [2] is reported as > 3000 nM and the “inhibitory activity” value [3] is reported as 77%. The IC50 [4] was 2.9 nM.
For `CC(=O)N1CCC(N2CCC(CNc3nc(N4CCOCC4)cc(-n4c(C(F)F)nc5ccccc54)n3)CC2)CC1` [Example 33], the IC50 [1] was 11 nM, the IC50 [2] was > 3000 nM and the “inhibitory activity” value [3] was 75%.
`C[C@@H]1COCCN1c1cc(-n2c(C(F)F)nc3ccccc32)nc(NCC2CCN(C3CCOCC3)CC2)n1` [Example 37] was tested, and the IC50 [1] was 20 nM, the IC50 [2] was 1900 nM and the “inhibitory activity” value [3] was 81%. The IC50 [4] was 1.52 nM.
`OCC1CCC(N2CCC(CNc3nc(N4CCOCC4)cc(-n4c(C(F)F)nc5ccccc54)n3)CC2)CC1` (stereo not drawn) [Example 29] was tested, and the IC50 [1] was 45 nM, the IC50 [2] was > 3000 nM and the “inhibitory activity” value [3] was 51%.
`FC(F)c1nc2ccccc2n1-c1cc(N2CCOCC2)nc(NCC2CCN([C@H]3CC[C@H](F)CC3)CC2)n1` [Example 43-1, 4-[2-(difluoromethyl)-1H-benzimidazol-1-yl]-N-{[1-(trans-4-fluorocyclohexyl)piperidin-4-yl]methyl}-6-(morpholin-4-yl)pyrimidin-2-amine dihydrochloride] was tested, and the IC50 [1] was 8 nM, the IC50 [2] was 13000 nM and the “inhibitory activity” value [3] was 73%. For the same compound, the IC50 [4] was 2.1 nM.
`CS(=O)(=O)N1CCC(N2CCC(CNc3nc(N4CCOCC4)cc(-n4c(C(F)F)nc5ccccc54)n3)CC2)CC1` [Example 34] was tested, and the IC50 [1] was 14 nM, the IC50 [2] was > 3000 nM and the “inhibitory activity” value [3] was 72%.
Compound `C[C@@H]1C[C@@H](N2CCC(CNc3nc(N4CCOCC4)cc(-n4c(C(F)F)nc5ccccc54)n3)CC2)C[C@H](C)O1` [Example 224] has an IC50 [1] of 3.3 nM, an IC50 [2] of 7300 nM and an IC50 [4] of 1.5 nM.
For `O=C(CNC1CCOCC1)N[C@H]1CC[C@H](Oc2cc(-n3c(C(F)F)nc4ccccc43)nc(N3CCOCC3)n2)CC1` [Example 136], the IC50 [1] was 4 nM, the IC50 [2] was > 10000 nM and the IC50 [4] was 1.7 nM.
`COC(=O)N[C@H]1CCN([C@H]2CC[C@H](Nc3nc(N4CCOCC4)cc(-n4c(C(F)F)nc5ccccc54)n3)CC2)C1=O` [Example 248, methyl{(3S)-1-[trans-4-({4-[2-(difluoromethyl)-1H-benzimidazol-1-yl]-6-(morpholin-4-yl)pyrimidin-2-yl}amino)cyclohexyl]-2-oxopyrrolidin-3-yl}carbamate] gave an IC50 [1] of 34 nM, an IC50 [2] of 720 nM and an IC50 [4] of 1.4 nM.
Work on `O=C(C1CCOCC1)N1CC[C@H](Nc2cc(-n3c(C(F)F)nc4ccccc43)nc(N3CCOCC3)n2)C1` [A293] yielded an IC50 [1] of 19 nM, an IC50 [2] of 3200 nM and an IC50 [4] of 2.6 nM.
